Test results taken from patent US5914341A, “Inhibitors of farnesyl-protein transferase” (Merck & Co., Inc., priority 1998, dated 1999).
Counter-ions that a name gives are not always drawn.

Molecular target: T1, human FPTase (Homo sapiens, UniProt P49354+P49356)
T1 construct: made in house
Assay: In vitro inhibition of ras farnesyl transferase (human FPTase assay)
Format: biochemical
Conditions: [3H]-FPP incorporation, 100 nM Ras-CVIM substrate, 30 min; read-out: IC50, inhibitory activity against human FPTase

IC50	Structure (SMILES)
< 30 µM	N#Cc1ccc(Cn2cncc2COC(=O)Nc2cccc(Cl)c2)cc1 [Example 1, N-(3-chlorophenyl)-O-[1-(4-cyanobenzyl)-5-imidazolylmethyl]-carbamate hydrochloride]
< 30 µM	CCCCCN(C(=O)OCc1cncn1Cc1ccc(C#N)cc1)c1cccc(Cl)c1 [Example 2, N-(3-chlorophenyl)-N-(n-pentyl)-O-[1-(4-cyanobenzyl)-5-imidazolylmethyl]carbamate hydrochloride]
